Source: patent publication US20150258220A1, “MAGNETIC RESONANCE IMAGING AND/OR SPECTROSCOPY CONTRAST AGENTS AND METHODS OF USE THEREOF” (Duke University, priority 2008, published 2015)

Tests used:
[1] = butter; cited from earlier work
[2] = 13C NMR inversion recovery of diacetyl / monohydrate in water; assay type: physicochemical; conditions: pH 7, water
Procedure: ^13C-labelled diacetyl was prepared from ^13C2 oxalate, which was reacted with N, N′-dimethylethylenediamine to afford 2,3-^13C2-1,4-dimethylpiperazine-2,3-dione in 97% yield. Two equivalents of methyl magnesium bromide were added to the piperazine dione to produce the dimethyl piperazine N,O-acetal. Crude acetal was hydrolyzed with 10% aqueous HCl to yield 2,3-^13C2-diacetyl, which was purified by fractional distillation. The carbonyl carbons in diacetyl are magnetically equivalent by symmetry, so at modest resolution (such as that commonly achieved in an imaging system), the spectrum is expected to have only a single line. Neat 2,3-^13C diacetyl does have a single line carbon-13 NMR spectrum, however the carbon spectrum in water has five lines. In water, the monohydrate (i.e., CH3—(^13C═O)(^13C(OH)2)CH3) with classic AX doublets (splitting JC-C=50 Hz) is the majority species. See Bell, Adv. Phys. Org. Chem., 4, 1 (1966); Bell and McDougall, Trans. Faraday Soc., 56, 1281-1285 (1960); and Greenzaid et al., J. Am. Chem. Soc., 89, 749 (1967). The dihydrate is undetectable. Equilibrium can be shifted back to diacetyl by changing solvent, and the rate of interconversion is pH dependent. At pH 7, inversion of the diacetyl alone causes recovery in 8 s, which gives the rate of dehydration. Inversion of all lines causes diacetyl to recover in 22 s.

[3] = DNP hyperpolarization (Oxford HYPERSENSE), single-shot 13C NMR in water; assay type: physicochemical; conditions: hyperpolarized sample in water
Description: FIG. 1 is a single-shot hyperpolarized ^13C nuclear magnetic resonance (NMR) spectrum of 2,3-^13C diacetyl in water. Hyperpolarized 2,3-^13C diacetyl was produced by a commercially available hyperpolarizer (Oxford HYPERSENSE™, Oxford Instruments Molecular Biotools Ltd., Tubney Woods, Abingdon, Oxfordshire, United Kingdom). The sample has about 20% nuclear polarization. The thermally polarized spectrum (not shown) is similar after many averages.
In some embodiments, the hyperpolarizing is performed by DNP. DNP refers to transferring spin polarization from electrons to nuclei. DNP can be performed by doping a material with a free radical. The unpaired electrons in the free radical can be polarized, for example, by exposure to a high magnetic field and low temperature. Irradiation at the electron paramagnetic resonance frequency can then serve to transfer polarization to the nuclei. By “hyperpolarization,” it is meant that the sample is polarized to a level over that found at room temperature and 1 Tesla, preferably polarized to a polarization degree in excess of 0.1%, more preferably 1%, even more preferably 10%.

nuclear polarization [3]: about 20%
SMILES: CC(=O)C(C)=O [diacetyl]
partitioning between phases [1]: mostly found in the fatty phase | recovery time after inversion of the diacetyl alone (gives the rate of dehydration) [2]: 8 s | recovery time of diacetyl after inversion of all lines [2]: 22 s
